Measured values as given in publication PMC3177990 (Biochemistry, 2011).

Biological target: human secretin receptor (Homo sapiens, UniProt P47872)
Assay: cAMP responses in CHO-SecR cells
Assay type: cell-based
Conditions: Figure 4, responses not significantly different from 1

Sequence of human secretin receptor (P47872 23-440): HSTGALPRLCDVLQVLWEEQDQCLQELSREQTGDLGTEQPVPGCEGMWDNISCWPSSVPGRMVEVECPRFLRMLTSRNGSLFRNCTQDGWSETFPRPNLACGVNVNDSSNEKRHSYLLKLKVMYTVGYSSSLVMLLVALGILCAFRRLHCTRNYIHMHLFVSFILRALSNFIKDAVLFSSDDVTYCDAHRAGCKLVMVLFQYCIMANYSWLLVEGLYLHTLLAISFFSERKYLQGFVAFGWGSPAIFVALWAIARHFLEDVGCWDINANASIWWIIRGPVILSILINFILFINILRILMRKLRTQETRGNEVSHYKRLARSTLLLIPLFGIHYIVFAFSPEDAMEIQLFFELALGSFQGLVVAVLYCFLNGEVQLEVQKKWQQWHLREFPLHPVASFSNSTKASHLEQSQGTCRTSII

Row | agonist character, cAMP responses compared with [Y^10]sec(1-27) (1) | Substance
1 | full agonists | cyclic [Glu^16,Lys^20][Tyr^10]human secretin(1-27) [compound 14]
2 | full agonists | cyclic [Glu^16,Lys^20]human secretin(1-27) [compound 15]
